Source: patent US20090012150A1, “Stablized Pharmaceutical Composition Comprising an Amorphous Active Substance” (priority 2002, published 2009)
Where two headings read alike, the source gives them in different places.

Conditions: 6 days at 80° C.
Experimental: Nitrogen of 99% purity (vol/vol) purity was used as an inert gas. The samples were stored at 80° C. for 6 days, and then the assay of impurities was determined by High Performance Liquid Chromatography.
The oxygen content in the vials was determined by gas chromatography with a mass spectrometric detector (GC/MS).
The degradation products were determined by […] Agilent Technologies (Waldbronn, Germany) model HP 1100. Chromatograms were recorded by a UV detector at 250 nm. The column Chromolit Performance RP-18e 100×4.6 mm (Merck, Darmstadt, Germany) and the gradient of mobile phase A: 20 mM ammonium acetate pH 4.0, 5% (v/v) tetrahydrofuran and 25% (v/v) acetonitrile and the gradient of mobile phase B: 20 mM ammonium acetate pH 4.0, 5% (v/v) tetrahydrofuran and 70 (v/v) acetonitrile were used. The composition of the mobile phase was changed so that initially and to minute 2 there was 25% of mobile phase B (75% of mobile phase A), from minute 2 to minute 4.7 the composition of the mobile phase changed linearly to 100% mobile phase B and it remained such to the end of the analysis at minute 5.5. Flow rate of the mobile phase was 7 ml/min. […] The samples of atorvastatin calcium were dissolved in the solvent 200 mM Tris p H 7, 40% (v/v) acetonitrile of the concentration 0.5 mg/ml.

[1] = oxygen content in atmosphere 0.6 %
[2] = oxygen content in atmosphere 2.8 %, hemi calcium salt
[3] = oxygen content in atmosphere 12.2 %, hemi calcium salt
[4] = oxygen content in atmosphere 21.3 %, hemi calcium salt

## CC(C)c1c(C(=O)Nc2ccccc2)c(-c2ccccc2)c(-c2ccc(F)cc2)n1CC[C@@H](O)C[C@@H](O)CC(=O)O.CC(C)c1c(C(=O)Nc2ccccc2)c(-c2ccccc2)c(-c2ccc(F)cc2)n1CC[C@@H](O)C[C@@H](O)CC(=O)O.CC(C)c1c(C(=O)Nc2ccccc2)c(-c2ccccc2)c(-c2ccc(F)cc2)n1CC[C@@H](O)C[C@@H](O)CC(=O)[O-].CC(C)c1c(C(=O)Nc2ccccc2)c(-c2ccccc2)c(-c2ccc(F)cc2)n1CC[C@@H](O)C[C@@H](O)CC(=O)[O-].[Ca+2] (relative stereo) [Amorphous atorvastatin calcium, (R—(R*, R*))-2-(4-fluorophenyl)-β,δ-dihydroxy-5-(1-methylethyl)-3-phenyl-4((phenylamino)carbonyl)-1H-pyrrole-1-heptanoic acid hemi calcium salt]
[1]
  Increase in the assay of degradation products in % in reference to starting active substance: 0%
[2]
  Increase in the assay of degradation products in % in reference to starting active substance: 0.13%
[3]
  Increase in the assay of degradation products in % in reference to starting active substance: 0.49%
[4]
  Increase in the assay of degradation products in % in reference to starting active substance: 0.89%

## CC(C)c1c(C(=O)Nc2ccccc2)c(-c2ccccc2)c(-c2ccc(F)cc2)n1CC[C@@H](O)C[C@@H](O)CC(=O)O.CC(C)c1c(C(=O)Nc2ccccc2)c(-c2ccccc2)c(-c2ccc(F)cc2)n1CC[C@@H](O)C[C@@H](O)CC(=O)O.CC(C)c1c(C(=O)Nc2ccccc2)c(-c2ccccc2)c(-c2ccc(F)cc2)n1CC[C@@H](O)C[C@@H](O)CC(=O)[O-].CC(C)c1c(C(=O)Nc2ccccc2)c(-c2ccccc2)c(-c2ccc(F)cc2)n1CC[C@@H](O)C[C@@H](O)CC(=O)[O-].[Ca+2] (relative stereo) [Crystalline atorvastatin calcium, (R—(R*, R*))-2-(4-fluorophenyl)-β,δ-dihydroxy-5-(1-methylethyl)-3-phenyl-4((phenylamino)carbonyl)-1H-pyrrole-1-heptanoic acid hemi calcium salt]
[1]
  Increase in the assay of degradation products in % in reference to starting active substance: 0%
[2]
  Increase in the assay of degradation products in % in reference to starting active substance: 0%
[3]
  Increase in the assay of degradation products in % in reference to starting active substance: 0.02%
[4]
  Increase in the assay of degradation products in % in reference to starting active substance: 0.05%
